Measurements reported in patent publication US7074807B2, “Compositions and methods for inducing cell death” (Georgetown University, priority 1998, dated 2006).

Experiments:
SAPK/JNK = assay: SAPK/JNK1 activity (GST-cJun phosphorylation); type: cell-based, human; settings: 10 mM, 2 h, vs tempol or 1% ethanol control
Method: FIGS. 5A, 5B, 5C. Tempo stimulates tyrosine phosphorylation and activity of SAPK. […] 5A. WCLs (1 mg) were immunoprecipitated with agarose-conjugated anti-SAPK antibody, followed by immunoblotting with anti-PY MAb. 5B. In other independent experiments, anti-SAPK immunoprecipitates were first probed with anti-PY MAb (top), and the blot was then reprobed with anti-SAPK antibody (bottom). 5C. […] WCLs were immunoprecipitated with anti-JNK1 antibody, and the JNK1 activity in immunoprecipitates was measured using GST-cJun (˜41 kDa) as a substrate. UT, untreated cells grown overnight in serum-free medium; CONT/Control, cells grown in serum-free medium overnight, and treated with 1% ethanol for 2 h.
ERK and SAPK/JNK Activities—Whole cell lysates prepared as described above were immunoprecipitated (1 mg) with an agarose conjugated anti-ERK1 antibody or an agarose conjugated anti-JNK1 antibody for 2 h at 4° C. with constant agitation. The immune-complexes were washed 3 times in lysis buffer and once in KBB as mentioned earlier. ERK or JNK activity assay was carried out according to manufacturer's procedures (UBI). […] The radioactive filters were washed and counted as described above. […] The radiolabeled GST-cJun fusion protein was detected by autoradiography.

DU145 cells = assay: Annexin V apoptosis in prostate cancer cells (5% BCS); type: cell-based, human; settings: 2.5 mM, 24 hr
Method: (§1) Cells were grown overnight in medium containing 10% BCS in T-25 flasks, switched to medium containing 5% BCS and treated with tempo. Following treatment, cells were washed, trypsinized, and resuspended in […] of 1× binding buffer as described before. […] (9A1–9A3): Cytograms of untreated (9A1); 0.1% ethanol-treated (24 hr) (9A2); and tempo-treated DU145 cells (2.5 mM, 24 hr) (9A3). […] (9B1–9B2), (9C1–9C2), (9D1–9D2): apoptosis (9B1, 9C1, 9D1) and necrosis (9B2, 9C2, […]) in cells treated with tempo (B, 2.5 mM; C, 24 hr; D, doses and times as indicated). Values shown are mean q S.D. of triplicate determination per point in each treatment category.
(§2) To investigate tempo's effect on prostate cancer cells, human androgen-independent prostate cancer-derived cell lines (DU145 and PC3) were grown to near confluence in 75 cm^2-tissue flasks in Improved Minimum Essential Medium (IMEM) (Cellgro) containing 10% bovine calf serum (BCS) supplemented with 2 mM L-glutamine and 200 IU/ml penicillin and streptomycin mixture in a humidified atmosphere of 5% CO2:95% air at 37° C. Human androgen-dependent prostate cancer-derived cell line (LNCaP) was cultured in RPMI 1640 medium containing 10% BCS and 2 mM L-glutamine. Cells were trypsinized and seeded in equal numbers overnight in 150 mm^2 tissue culture dishes (two dishes per flask) or 25 cm^2 flasks (1×10^6 cells per flask). Cells were treated in medium containing 5% BCS with desired concentration of tempo for various times. Tempo was dissolved in ethanol (0.1%) before use. Control cultures were treated with ethanol (0.1%) for various times. Following treatment, cells were washed 3 times with PBS. […] In LNCaP cells, a relatively higher level of apoptosis was observed (1 mM tempo, 24 hr, approximately 12-fold; 5 mM, 4 hr, approximately 15-fold) (FIGS. 9A1, 9A2, 9A3, 9B1, 9B2, 9C1, 9C2, 9D1, 9D2).

LNCaP cells = assay: as above; type: cell-based, human
Method: as §1, §2

PC-3 cells = assay: as above; type: cell-based, human; settings: 2.5 mM, 24 hr
Method: as §1, §2

caspase-3 in DU145 cells = assay: Caspase-3 activity assay (DEVD-AFC); type: cell-based, human; settings: 2.5 mM, 2 hr
Method: (§3) FIG. 10 illustrates the effect of tempo on caspase-3 activity in prostate cancer cell lines. Cells were treated with 2.5 mM tempo for indicated times in duplicate or triplicate as described in legend to FIG. 2. Representative data from one experiment are shown. Experiments was repeated 2–3 times.
(§4) ApoAlert CPP32 activity/caspase-3 assay kit was used to measure caspase-3 activity in cells according to manufacturer's instructions (Clontech). Briefly, after tempo treatment, cells were washed 3 times with ice-cold PBS and lysed in Clontech cell lysis buffer for 10 min on ice followed by microcentrifugation at 15,000× g for 5 min. Whole cell lysate (50 ug) was incubated for 1 h at 37° C. in caspase-3 reaction mixture containing 10 mM DTT in 2× reaction buffer, 50 uM CPP32 substrate, DEVD-AFC. The amounts of 7-amino-4 trifluoromethyl coumarin (AFC) released were detected by spectrofluorometer (Hitachi F4500) with excitation at 400 nm and emission at 505 nm.

caspase-3 in LNCaP cells = assay: Caspase-3 activity assay (DEVD-AFC); type: cell-based, human; settings: 2.5 mM, 24 hr
Method: as §3, §4

caspase-3 in PC3 cells = assay: Caspase-3 activity assay (DEVD-AFC); type: cell-based, human; settings: 2.5 mM, 24 hr
Method: as §3, §4

[1] = Kocherginsky et al., 1995; cited from earlier work

## CC1(C)CCCC(C)(C)N1[O] [tempo, 2,2,6,6-tetramethylpiperidine-N-oxyl]
SAPK/JNK
  increase in the phosphorylated GST-cJun fusion protein: 3–7 fold
DU145 cells
  increase in the number of apoptotic cells: approximately 3.4 fold
LNCaP cells; 1 mM, 24 hr
  level of apoptosis (increase): approximately 12 fold
LNCaP cells; 5 mM, 4 hr
  level of apoptosis (increase): approximately 15 fold
PC-3 cells
  increase in the number of apoptotic cells: ~6.7 fold
caspase-3 in DU145 cells
  level of caspase-3 activity: ~170%
caspase-3 in LNCaP cells
  increase in caspase activity: ~12 fold
caspase-3 in PC3 cells
  level of caspase-3 activity: ~200%
[1]
  lipophilicity relative to tempol: approximately 200 times
Tolerated dose in mice
  intratumoral tolerance: over 200 mg/kg
